Assay results reported in PubChem BioAssay (NCI).
“And” between values parts separate entries of the source, which are not always exact repeats. Identical values can stand only once.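 Cells were grown in 96-well plates and exposed to each compound for 48 hours at five concentrations; endpoints were interpolated linearly between bracketing concentrations, or set to the highest concentration if not reached. GI50 marks 50% less growth. The concentration for full growth arrest is given as TGI.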

Columns and labels:
Assay in all cases: inhibition of tumour cell growth, NCI panel, 48 h
M14 melanoma = tested on: M14 melanoma
HT29 colon = tested on: HT29 colon
SNB-19 CNS = tested on: SNB-19 CNS
IGROV1 ovarian = tested on: IGROV1 ovarian
COLO 205 colon = tested on: COLO 205 colon
SN12C renal = tested on: SN12C renal
HCT-15 colon = tested on: HCT-15 colon
MDA-MB-435 = tested on: MDA-MB-435
SF-295 CNS = tested on: SF-295 CNS
OVCAR-3 ovarian = tested on: OVCAR-3 ovarian

SMILES	GI50 (M14 melanoma)	TGI (M14 melanoma)	GI50 (HT29 colon)	TGI (HT29 colon)	GI50 (SNB-19 CNS)	TGI (SNB-19 CNS)	GI50 (IGROV1 ovarian)	TGI (IGROV1 ovarian)	GI50 (COLO 205 colon)	TGI (COLO 205 colon)	GI50 (SN12C renal)	TGI (SN12C renal)	GI50 (HCT-15 colon)	TGI (HCT-15 colon)	GI50 (MDA-MB-435)	TGI (MDA-MB-435)	GI50 (SF-295 CNS)	TGI (SF-295 CNS)	GI50 (OVCAR-3 ovarian)	TGI (OVCAR-3 ovarian)
O=C(CCl)c1ccc([N+](=O)[O-])o1	2.18 µM	5.06 µM	2.76 µM	8.99 µM	10.6 µM	23.4 µM	5.5 µM	14 µM	1.73 µM	3.72 µM	2.38 µM	7.27 µM	1.61 µM	3.22 µM	1.89 µM	4.22 µM	5.26 µM	17.4 µM	1.25 µM	2.58 µM
Nc1nc(/C=C\c2ccc([N+](=O)[O-])o2)nc(N2CCN(c3ccccc3)CC2)n1	4.01 µM	26.7 µM	13.7 µM	55.9 µM	20 µM	83.8 µM	5.31 µM	32.3 µM	2.88 µM	21.9 µM	11.1 µM	43.9 µM	2.77 µM	11.9 µM	3.98 µM	26 µM	22.1 µM	73.8 µM	3.96 µM	18.2 µM
O=C(O)CS(=O)(=O)C(c1ccccc1)c1ccccc1		> 100 µM		> 100 µM		> 100 µM		> 100 µM		> 100 µM		> 100 µM		> 100 µM		> 100 µM		> 100 µM		> 100 µM
O=C(O)[C@@H]1C2CC([C@@H]1C(=O)O)[C@H](N1C(=O)CCC1=O)[C@@H]2Br (stereo partly drawn)		> 100 µM		> 100 µM		> 100 µM		> 100 µM		> 100 µM		> 100 µM		> 100 µM		> 100 µM		> 100 µM		> 100 µM
O=C(Nc1cccc(Cl)c1)Nc1ncc(CCNc2ncnc3ccsc23)s1	2.3 µM and 1.91 µM	11.6 µM and > 10 µM	3.33 µM and 3.03 µM	23.1 µM and > 10 µM	11.2 µM and > 10 µM	26.9 µM and > 10 µM	7.43 µM and 3.6 µM	44.1 µM and > 10 µM	< 0.0105 µM and 0.00997 µM	8.36 µM and 3.88 µM	3.91 µM and 3.82 µM	18.6 µM and > 10 µM	2.99 µM and 1.79 µM	20.4 µM and > 10 µM	1.99 µM and 1.89 µM	14.2 µM and > 10 µM	0.215 µM and 0.593 µM	16.9 µM and > 10 µM	4.06 µM and 1.06 µM	17.1 µM and > 10 µM
CCc1ccc(NCc2cc(OC)c(OC)c(OC)c2)cc1	0.261 µM and 0.392 µM	27.6 µM		1.72 µM and 1.39 µM	1.14 µM	> 100 µM	1.32 µM and 0.615 µM	> 66.2 µM	0.251 µM and 0.333 µM	1.3 µM and 1.47 µM	0.578 µM and 1.16 µM	38.4 µM and > 68.7 µM		42.2 µM and 20.4 µM	0.0232 µM and 0.0172 µM	45.8 µM and 31.3 µM	0.0741 µM	6.29 µM and 1.99 µM	0.348 µM	1.32 µM
CCN1C(=O)N(CC)C2C1NN=c1s/c(=C3\C(=O)N(C(C)C)c4ccccc43)c(=O)n12 (stereo not drawn)	0.376 µM	> 100 µM	0.35 µM	> 100 µM	0.44 µM	> 100 µM	0.586 µM	> 100 µM	0.337 µM	1.8 µM	0.616 µM	> 100 µM	0.322 µM	> 100 µM	0.192 µM	0.487 µM	0.246 µM	0.83 µM	0.294 µM	0.841 µM
NC(=O)[C@H]1CCN(c2ncnc(N)c2F)C[C@@H]1N1CCC[C@@H](Nc2cc(Cl)cc(C(F)(F)F)c2)C1=O	12.8 µM	36.8 µM	5.29 µM	55.1 µM	25.8 µM	> 100 µM	5.12 µM	> 100 µM	5.24 µM	34.2 µM	10.9 µM	> 100 µM	15.1 µM	48.2 µM	14.3 µM	39.5 µM	17.1 µM	41.8 µM	28.5 µM	> 100 µM
CCCN(Cc1ccc(F)cc1)c1ccc(CO)c(Cl)c1	14.3 µM	32.9 µM	4.78 µM	16.4 µM	12.7 µM	26.8 µM	0.0897 µM	0.39 µM	3.96 µM	13.6 µM	9.42 µM	23.1 µM	5.35 µM	19.8 µM	14.6 µM	29 µM	1.41 µM	9.65 µM	0.662 µM	4.02 µM
CN(C)c1ccc2nc3ccc(=[N+](C)C)cc-3oc2c1	0.959 µM	3.77 µM	3.38 µM	29.3 µM	2.49 µM	> 100 µM	1.86 µM	5.01 µM	0.391 µM	1.68 µM	0.892 µM	3.5 µM	3.48 µM	> 100 µM	2.73 µM	15.8 µM	3.74 µM	22.5 µM	0.4 µM	5.09 µM
